Reference: PMC4464647, “ANO1 (TMEM16A) in pancreatic ductal adenocarcinoma (PDAC)” (Pflugers Archiv, 2014)

What was measured:
Format in all cases: cell-based, human
BxPC-3 cells = test: Fura-2 measurement of free intracellular calcium, ATP stimulation; conditions: BxPC-3, ATP 10 μM, no inhibitor
Method: (§1) HPDE and BxPC-3 cells were incubated with 2 μM Fura-2 AM (Sigma-Aldrich, Denmark) for 30 min at 37 °C. Cells were subsequently washed with Krebs solution containing (in mM) 150 NaCl, 6 KCl, 1.5 CaCl2, 1 MgCl2, 10 glucose, and 10 HEPES; pH was adjusted to 7.4 using NaOH. Coverslips were mounted on a recording chamber. In the beginning of the experiment, cells were perfused with Krebs solution at 4 ml/min until baseline was stable. […] Changes in [Ca^2+]i were measured by a TIRF iMIC microscope (TILL Photonics, Germany). Fura-2 AM loaded cells were illuminated at 340 nm for 80 ms and 380 nm for 80 ms at 1 s intervals using a TILL Polychrome monochromator. Five hundred-nanometer emission images were captured by an image-intensifying, charge-coupled device (CCD) camera (TILL Photonics, Germany) and digitized by an image processing system (TILL Photonics, Germany). The monochromator and CCD camera were controlled by LA Live Acquisition software, which was also used for image analysis. The [Ca^2+]i was presented as the Fura-2 ratio of the fluorescence signals obtained at 340/380 nm.
(§2) Fig. 8 Cl^− channel inhibitors alter ATP-induced Ca^2+ signals. Intracellular Ca^2+ measurements in FURA-2 loaded HPDE and BxPC-3 cells. a Representative single-cell traces of individual experiments. Different substances were applied as indicated. […] (n) = number of individual experiments; each containing between 5–45 single cells.***p ≤ 0.001 when compared to no inhibitor condition; ^## p ≤ 0.01 when compared with HPDE no inhibitor
(§3) Activation of CaCC requires an increase in [Ca^2+]i, which can be achieved by stimulation of receptors such as purinergic receptors. Therefore, we studied the effect of Cl^− channel inhibitors on changes in [Ca^2+]i induced by purinergic signaling. We chose HPDE cells with very low expression levels of ANO1 and the highly ANO1 overexpressing cell line BxPC-3 for investigation. Fura-2 loaded HPDE and BxPC-3 cells were stimulated with ATP (10 μM) (Fig. 8) or exposed to the inhibitor prior to stimulation. ATP stimulation caused a 0.46 ± 0.03 peak increase in the Fura-2 ratio in HPDE and 0.55 ± 0.02 in BxPC-3 cells. […] However, no effect of the inhibitor on basal Ca^2+ level was observed.

HPDE cells = test: as above; conditions: ATP 10 μM, no inhibitor
Method: as §1, §2, §3

[1] = system: HPDE, Capan-1, AsPC-1, and BxPC-3 cells; test: BrdU incorporation cell proliferation assay, all tested cell lines; conditions: all tested cells, gemcitabine 20 μM, data not shown
Method: To assess cell proliferation and apoptosis, cells were plated in duplicates on a 96-well plate and incubated in 100 μl of the cell line appropriate media described above. Cells were transfected with siRNA soon after complete attachment (approx. 3 h after seeding). Cells were treated with vehicle, 20 μM gemcitabine, 20 μM T16Ainh-A01, or 10 μM free NS3728 (see below) after culture in a humidified 37 °C and 5 % CO2 incubator overnight. BrdU incorporation was measured using Cell Proliferation ELISA, BrdU (chemiluminescent) (Roche Diagnostics A/S, Denmark) following the manufacturer’s instructions. Caspases 3, 6, and 7 activation was evaluated using Homogeneous Caspases Assay (fluorimetric) (Roche Diagnostics A/S, Denmark).
Fig. 7 VRAC, but not ANO1, regulates cellular proliferation. a Summary of BrdU incorporation in HPDE, Capan-1, AsPC-1, and BxPC-3 cells after various treatments as indicated. Cells were transfected shortly after complete attachment (approx. 3 h) and BrdU incorporation was assessed 36 h after transfection. To investigate effect of inhibitors, cells were incubated for 24 h with respective inhibitor. Values shown are relative to appropriate control. Data shown represents mean ± s.e.m. of n = 4–6 individual experiments. **p ≤ 0.01 and ***p ≤ 0.001 when compared with control

| SMILES | peak increase in the Fura-2 ratio (BxPC-3 cells) | peak increase in the Fura-2 ratio (HPDE cells) | proliferation (BrdU incorporation) [1] |
| --- | --- | --- | --- |
| Nc1ncnc2c1ncn2[C@@H]1O[C@H](COP(=O)(O)OP(=O)(O)OP(=O)(O)O)[C@@H](O)[C@H]1O [ATP] | 0.55 ± 0.02 | 0.46 ± 0.03 | – |
| Nc1ccn([C@@H]2O[C@H](CO)[C@@H](O)C2(F)F)c(=O)n1 [gemcitabine] | – | – | almost complete inhibition of proliferation |
